Source: patent US6638970B2, “Substituted alkylene diamine compounds” (CV Therapeutics, Inc., priority 2000, dated 2003)

Experiments:
[1] = system: mitochondrial fatty acid oxidation using palmitoyl carnitine as substrate; assay: Palmitoyl carnitine oxidation in isolated rat heart mitochondria; assay type: biochemical; conditions: 15 min at 30° C.
Description: (§1) Rat heart mitochodria were isolated by the method of Nedergard and Cannon (Methods in Enzymol. 55, 3, 1979).
(§2) Palmitoyl Carnitine Oxidation—The Palmitoyl carnitine oxidation was carried out in a total volume of 100 microliters containing the following agents: 110 mM KCl, 33 mM Tris buffer at pH 8, 2 mM KPi, 2 mM MgCl2, 0.1 mM EDTA, 0.1 mg/ml of defatted BSA, 0.5 mM malic acid, 3 mM ADP, 52 micrograms of mitochondrial protein, and 43 microM 1-C14 palmitoyl carnitine (Sp. Activity 60 mCi/mmole; 20 microCi/ml, using 5 microliters per assay). The compounds of this invention were added in a DMSO solution at the following concentrations: 100 microM, 30 microM, and 3 microM. In each assay, a DMSO control was used. After 15 min at 30° C., the enzymatic reaction was centrifuged (20,000 g for 1 min), and 70 microliters of the supernatant was added to an activated reverse phase silicic acid column (approximately 0.5 ml of silicic acid). The column was eluted with 2 ml of water, and 0.5 ml of the eluent was used for scintillation counting to determine the amount of C^14 trapped as C^14 bicarbonate ion. The data are presented as % activity of control.

[2] = Metabolic stability in human liver S-9 fractions; assay type: in vitro ADME; conditions: for Liver S-9 stability factor: % parent remaining after 30 min in human liver S-9 divided by average % of ranolazine remaining (57%)
Description: Metabolic Stability: As a measure of metabolic stability the compounds of this invention were incubated with human liver S-9 microsomal fractions. After, 30 minutes at 37 C, the amount of parent drug remaining was determined using LC-mass spec. The response factors for each compound was determined by establishing a standard curve and using an internal standard during the analysis of the samples. An average of five experiments for percentage of ranolazine remaining at the 30 minute time point is 57%. The compounds of this invention were assayed as described in the protocol below and the percentage of parent remaining was divided by the average % of ranolazine remaining (57%) affording a metabolic stability factor. A compound with a stability number greater than 1.2 has a better stability than ranolazine in the liver S-9 assay. A compound with a stability number between 1.2 and 0.8 has an equivalent stability in the liver S-9 assay.
The purpose of this experiment is to compare the percentages remaining for compounds of this invention with the percentage remaining for ranolazine after 30 minutes of incubation with human liver S9 fractions.
The following reagents were used; Potassium phosphate, 0.5M […]. (incubation buffer), kept at room temperature; 0.05M MgCl2 kept at 4° C.; β-Nicotinamide adenine dinucleotide phosphate, tetrasodium salt, reduced form (NADPH), 0.02M solution in water (˜16.6 mg/mL) from Sigma Lot # 79H7044 prepared on day of use. 1 mM of ranolazine or Compounds 7, 9, and 10-13 in ACN further diluted to obtain 100 μM in 10% ACN; Human S9 stock: 20 mg/mL from Gentest Lot 3.
Incubation mixtures were prepared as follows:
Combine all components with incubation buffer and re-pipette 200 μL/tube+25 μL of the compound being tested along with 25 μL of S-9.
After 5 min of pre-incubation at 37° C., at 0 and 30 min after starting the reaction, a 50 μl aliquot of the incubation mixture was removed and added to 100 μL of 9:1 acetonitrile:methanol containing the internal standard.
The mixture was centrifuged and a 100 μL aliquot of the supernatant was diluted in 1 mL of solvent C (0.1% Formic Acid in water). Then samples were analyzed for change between the ratio of compound to internal standard at time zero and 30 minutes by LC/MS (injected 10 μL).
Samples were analyzed for the starting compounds and potential metabolite/s by LC/MS using an internal standard on a Micromass platform mass spec with a Keystone Inc. BDS ODS-C18 column with a flow rate of 0.25 ml/min.

[3] = system: mitochondrial fatty acid oxidation using palmitoyl CoA as substrate; assay: Palmitoyl CoA oxidation in isolated rat heart mitochondria; assay type: biochemical; conditions: 15 min at 30° C.
Description: as §1
as §2, with “Palmitoyl CoA oxidation—The” for “Palmitoyl Carnitine Oxidation—The”, “Palmitoyl CoA” for “Palmitoyl carnitine”, “EDTA, 14.7 microM” for “EDTA, 0.1 mg/ml of”, “acid, 13 mM carnitine, 1” for “acid, 3”, “and 16” for “and 43”, “palmitoyl CoA” for “palmitoyl carnitine”

Liver S-9 stability factor [2]	Compound	Palmitoyl carnitine oxidation remaining, % activity of DMSO control ([1]; 100 μM compound) [%]	Palmitoyl CoA oxidation activity, % of DMSO control ([3]; 100 μM compound) [%]	other results
1.59	Cc1cccc(C)c1NC(=O)CN(C)CCN(C)CC(O)Cc1ccc2c(c1)OCO2 (stereo not shown) [Compound 20]	98.7		
1.0	COc1ccccc1OCC(O)CN1CCN(CC(=O)Nc2c(C)cccc2C)CC1 (racemic) [Ranolazine, (±)-N-(2,6-dimethylphenyl)-4-[2-hydroxy-3-(2-methoxyphenoxy)-propyl]-1-piperazineacetamide, reference compound]	63	75	Palmitoyl carnitine oxidation remaining, % activity of DMSO control ([1]; 30 μM compound): 98%; Palmitoyl CoA oxidation activity, % of DMSO control ([3]; 30 μM compound): 90%; percentage of parent drug remaining at the 30 minute time point ([2]; human liver S-9, 30 minutes at 37 C, 10 μM, average of five experiments): 57%
	CCN(CCN(CC)CC(O)c1ccccc1F)CC(=O)Nc1c(C)cccc1C (stereo not shown) [Compound 18]		54.8	
	CCN(CCN(CC)CC(O)COc1ccccc1OC)CC(=O)Nc1c(C)cccc1C (stereo not shown) [Compound 13]		67.8	
	COc1ccccc1OCC(O)CN(C)CCN(C)CC(=O)Nc1c(C)cccc1C (stereo not shown) [Compound 9]		8.83	
	CCN(CCN(CC)CC(O)Cc1ccc2c(c1)OCO2)CC(=O)Nc1c(C)cccc1C (stereo not shown) [Compound 19]	97.1	26	
	Cc1cccc(C)c1NC(=O)CN(C)CCN(C)CC(O)COc1c(Cl)cccc1Cl (stereo not shown) [Compound 10]		23	
0.01	CCN(CCN(CC)CC(O)c1ccccc1Cl)CC(=O)Nc1c(C)cccc1C (stereo not shown) [Compound 17]		34.3	
1.58	Cc1cccc(C)c1NC(=O)CN(C)CCCN(C)CC(O)Cc1ccc2c(c1)OCO2 (stereo not shown) [Compound 22]	97	12.5	
	CCN(CCN(CC)CC(O)COc1c(Cl)cccc1Cl)CC(=O)Nc1c(C)cccc1C (stereo not shown) [Compound 14]		97.1	
	COc1ccccc1CC(O)CN(C)CCN(C)CC(=O)Nc1c(C)cccc1C (stereo not shown) [Compound 11]		8	
1.51	Cc1cccc(C)c1NC(=O)CN(C)CCN(C)CC(O)COc1ccc2c(c1)OCO2 (stereo not shown) [Compound 7, 2-({2-[(3-(2H-benzo[d]1,3-dioxolen-5-yloxy)-2-hydroxypropyl)methylamino]ethyl}methylamino)-N-(2,6-dimethylphenyl)acetamide]			
	Cc1cccc(C)c1NC(=O)CN(C)CCN(C)CC(O)Cc1cccc2ccccc12 (stereo not shown) [Compound 12]		26.5	
0.08	Cc1cccc(C)c1NC(=O)CN(C)CCCN(C)CC(O)Cc1ccccc1 (stereo not shown) [Compound 21]	4.9		
